Assay [1] concerns LOX IMVI. Briefly: Antiproliferative activity against human LOX IMVI cells assessed as inhibition of cell growth incubated for 24 to 48 hrs by SRB assay. In kind it is functional, cell-based. A general note: Sulforhodamine B stains cellular protein and so reports cell mass.
Assay [2] deals with THP-1. Nature of the assay: Antiproliferative activity against human THP-1 cells assessed as inhibition of cell growth incubated for 72 hrs by MTT assay. In kind it is functional, cell-based. To be noted: THP-1, 72 h. In general terms: Tetrazolium assays rely on reduction of a dye to a coloured formazan, in cell work by metabolically active cells.
The nature of assay [3]: Antiproliferative activity against human KB-ChR-8-5-11 cells assessed as inhibition of cell growth incubated for 72 hrs by MTT assay. In kind it is functional, cell-based. As to conditions: KB-ChR-8-5-11, 72 h.
Assay [4] relates to HCT-116. Nature of the assay: Antiproliferative activity against human HCT-116 cells assessed as inhibition of cell growth incubated for 72 hrs by MTT assay. It is filed as functional, cell-based. To be noted: HCT-116, 72 h.
Assay [5] relates to Jurkat. Briefly: Antiproliferative activity against human Jurkat cells assessed as inhibition of cell growth incubated for 72 hrs by MTT assay. It is filed as functional, cell-based.
Assay [6] concerns MCF7. Nature of the assay: Antiproliferative activity against human MCF7 cells assessed as inhibition of cell growth incubated for 72 hrs by MTT assay. It is filed as functional, cell-based. To be noted: MCF7, 72 h.
The test system of assay [7] is J774.2. Nature of the assay: Antiproliferative activity against mouse J774.2 cells assessed as inhibition of cell growth incubated for 72 hrs by MTT assay. It is filed as functional, cell-based. To be noted: J774.2, 72 h.
The subject of assay [8] is MCF7. Briefly: Antiproliferative activity against human MCF7 cells assessed as inhibition of cell growth incubated for 24 hrs by MTT assay. In kind it is functional, cell-based. As to conditions: MCF7, 24 h.
Assay [9] relates to HepG2. Briefly: Antiproliferative activity against human HepG2 cells assessed as inhibition of cell growth incubated for 24 hrs by MTT assay. In kind it is functional, cell-based. As to conditions: HepG2, 24 h.
Assay [10] deals with HeLa. Briefly: Antiproliferative activity against human HeLa cells assessed as inhibition of cell growth incubated for 24 hrs by MTT assay. It is filed as functional, cell-based.
Assay [11] has as its system HCT-8. Briefly: Antiproliferative activity against human HCT-8 cells assessed as inhibition of cell growth incubated for 72 hrs by MTT assay. In kind it is functional, cell-based. As to conditions: HCT-8, 72 h.
Assay [12] concerns MDA-MB-435. Briefly: Antiproliferative activity against human MDA-MB-435 cells assessed as inhibition of cell growth incubated for 72 hrs by MTT assay. It is filed as functional, cell-based. As to conditions: MDA-MB-435, 72 h.
The subject of assay [13] is HL-60. Briefly: Antiproliferative activity against human HL-60 cells assessed as inhibition of cell growth incubated for 72 hrs by MTT assay. It is filed as functional, cell-based. As to conditions: HL-60, 72 h.
The test system of assay [14] is OVCAR-8. Briefly: Antiproliferative activity against human OVCAR-8 cells assessed as inhibition of cell growth incubated for 72 hrs by MTT assay. It is filed as functional, cell-based. To be noted: OVCAR-8, 72 h.
The test system of assay [15] is SF-295. Nature of the assay: Antiproliferative activity against human SF-295 cells assessed as inhibition of cell growth incubated for 72 hrs by MTT assay. To be noted: SF-295, 72 h. In kind it is functional, cell-based.
The nature of assay [16]: Antiproliferative activity against human NCI-H358M cells assessed as inhibition of cell growth incubated for 72 hrs by MTT assay. It is filed as functional, cell-based.
Assay [17] deals with PC-3M. Nature of the assay: Antiproliferative activity against human PC-3M cells assessed as inhibition of cell growth incubated for 72 hrs by MTT assay. In kind it is functional, cell-based.
Assay [18] has as its system HT-29. Briefly: Antiproliferative activity against human HT-29 cells assessed as inhibition of cell growth incubated for 72 hrs by MTT assay. It is filed as functional, cell-based. To be noted: HT-29, 72 h.
The test system of assay [19] is MOLT-4. Briefly: Antiproliferative activity against human MOLT-4 cells assessed as inhibition of cell growth incubated for 72 hrs by MTT assay. In kind it is functional, cell-based. As to conditions: MOLT-4, 72 h.
Assay [20] deals with A549. Nature of the assay: Antiproliferative activity against human A549 cells assessed as inhibition of cell growth incubated for 48 hrs by MTT assay. To be noted: A549, 48 h. In kind it is functional, cell-based.
Assay [21] can be described thus: Antiproliferative activity against human NCI-H322T cells assessed as inhibition of cell growth incubated for 48 hrs by MTT assay. In kind it is functional, cell-based.
Assay [22] has as its system HeLa. Nature of the assay: Antiproliferative activity against human HeLa cells assessed as inhibition of cell growth incubated for 48 hrs by MTT reagent based colorimetric assay. In kind it is functional.
Assay [23] concerns HepG2. Nature of the assay: Antiproliferative activity against human HepG2 cells assessed as inhibition of cell growth incubated for 48 hrs by MTT reagent based colorimetric assay. In kind it is functional. As to conditions: HepG2, 48 h.
For assay [24], the system named is HL-60. Nature of the assay: Antiproliferative activity against human HL-60 cells assessed as inhibition of cell growth incubated for 72 hrs by MTT reagent based spectral analysis. In kind it is functional. To be noted: HL-60, 72 h.
Assay [25] deals with KB. Nature of the assay: Antiproliferative activity against human KB cells assessed as inhibition of cell growth incubated for 72 hrs by MTT assay. In kind it is functional, cell-based.
Assay [26] deals with HepG2. Nature of the assay: Antiproliferative activity against human HepG2 cells assessed as inhibition of cell growth incubated for 72 hrs by MTT assay. It is filed as functional, cell-based. As to conditions: HepG2, 72 h.
Assay [27] concerns SiHa. Briefly: Antiproliferative activity against human SiHa cells. In kind it is functional, cell-based.
In assay [28] the test system is NCI-H460. Briefly: Antiproliferative activity against human NCI-H460 cells assessed as inhibition of cell growth incubated for 72 hrs by MTT assay. In kind it is functional, cell-based. As to conditions: NCI-H460, 72 h.
Assay [29] deals with DU-145. Nature of the assay: Antiproliferative activity against human DU-145 cells assessed as inhibition of cell growth incubated for 72 hrs by MTT assay. In kind it is functional, cell-based. As to conditions: DU-145, 72 h.
In assay [30] the test system is Bel-7402. Nature of the assay: Cytotoxicity against human Bel-7402 cells incubated for 48 hrs by MTT assay. It is filed as functional, cell-based. As to conditions: Bel-7402, 48 h.
Assay [31] deals with MDA-MB-231. Briefly: Cytotoxicity against human MDA-MB-231 cells incubated for 48 hrs by MTT assay. It is filed as functional, cell-based. To be noted: MDA-MB-231, 48 h.
The test system of assay [32] is HCT-15. Nature of the assay: Cytotoxicity against human HCT-15 cells incubated for 48 hrs by MTT assay. It is filed as functional, cell-based. As to conditions: HCT-15, 48 h.
The subject of assay [33] is HCT-116. Nature of the assay: Cytotoxicity against human HCT-116 cells incubated for 48 hrs by MTT assay. In kind it is functional, cell-based. As to conditions: HCT-116, 48 h.
Assay [34] deals with DBTRG-05MG. Briefly: Antiproliferative activity against human DBTRG-05MG cells assessed as inhibition of cell growth incubated for 72 hrs by cell counting kit method. In kind it is functional, cell-based. As to conditions: dbtrg-05mg.

≈ marks a conversion by molar mass, not a printed value.

For 14 compounds, IC50 results are on record in ChEMBL document CHEMBL5512632, “Unlocking the potential of 1,4-naphthoquinones: A comprehensive review of their anticancer properties” (Eur J Med Chem, 2024).

The term IC50 denotes the concentration at which inhibition is half-maximal. As to `COc1cc(C2C3=C(Sc4[nH]c(=O)sc42)C(=O)c2ccccc2C3=O)ccc1O` (centres undefined), in assay [1], the IC50 was 0.16 µM.
Take `O=C1C2=C(C(=O)c3ccccc31)C(CCc1ccccc1)c1sc(=O)[nH]c1S2` (centres undefined): the IC50 in [2] was 7.94 µM; in assay [3], 12.8 µM; in assay [4], 6.37 µM; in [5] it was 0.76 µM; in assay [6], 8.94 µM; in assay [7] it was 9.57 µM.
With `O=C1C=C(SCCC(=O)N2CCN(c3ccccc3F)CC2)C(=O)c2ccccc21`, the IC50 in assay [8] stood at 16.1 µM; in [9], 18.7 µM; in assay [10], 13 µM.
For `C[C@H](NC1=CC(=O)c2ccccc2C1=O)C(=O)O`, the IC50 in assay [11] came to 3.38 µM; in assay [12], 1.99 µM; in [13] it was 4.27 µM; in [14], 9.61 µM; in [4], 4.52 µM; in [15], 2.56 µM. In addition, the IC50 in assay [16] stood at 3.36 µM; in assay [17], 6.55 µM.
Take `Cc1ccc(Cn2cc(CNC3=CC(=O)c4ccccc4C3=O)nn2)cc1`: the IC50 in assay [18] came to 6.8 µM; in assay [19], 8.4 µM; in [6] it was 10.4 µM.
As for `N#Cc1ccccc1-n1cc(COc2cccc3c2C(=O)C=CC3=O)nn1`, the results for the IC50 in [20] and in assay [21] were 4.67 µM and 7.94 µM, respectively.
For `O=C1C=C(Nc2cccc(F)c2)C(=O)c2ccccc21`, the IC50 in assay [20] came out at 6.15 µM.
Turning to `COc1cc(C2C3=C(Nc4cc5c(cc42)OCO5)C(=O)c2ccccc2C3=O)cc(OC)c1OC` (centres undefined), the 50% inhibitory concentration (IC50) in assay [22] is 26.8 µM; in assay [23], 14.6 µM.
`CSc1ccc(-c2c(-c3ccc(SC)cc3)n3c4c(c(-c5ccc(SC)cc5)c3c3ccc(SC)cc23)C(=O)c2ccccc2C4=O)cc1`: the IC50 in [24] worked out at 2.92 µM.
Take `O=C1OCC2=C1C(c1ccc(Oc3ccc(F)cc3)cc1)C1=C(N2)C(=O)c2ccccc2C1=O` (centres undefined): the figures for the IC50 in [25], in assay [6] and in assay [26] were 0.6 µM, 2.12 µM and 1.05 µM, respectively.
On to `O=C(Nc1ccc(S(=O)(=O)c2ccc3[nH]c4c(c3c2)C(=O)c2ccccc2C4=O)cc1)c1cc([N+](=O)[O-])cc([N+](=O)[O-])c1`, for which the half-inhibitory concentration (IC50) in assay [27] worked out at 20 mg/L (≈ 33.5 µM).
As for `COc1ccc(N(Cc2cn(S(=O)(=O)c3ccc(C)cc3)nn2)C2=CC(=O)c3ccccc3C2=O)cc1`, the IC50 in assay [28] was 0.38 µM; in [12], 0.56 µM; in assay [14] it was 0.85 µM; in [4], 0.46 µM; in assay [5], 0.31 µM; in [29], 0.38 µM. Moreover, the IC50 in [15] came out at 0.42 µM; in [6], 0.58 µM.
Consider `C=CC(C)(C)C(OCCCCCCO)c1cc(OC)c2c(c1OC)/C(=N\O)C=C/C2=N\O` (centres undefined), for which the IC50 in assay [30] was 6.53 µM; in assay [31], 8.46 µM; in assay [32] it was 30.2 µM; in [33] it was 23.5 µM.
As to SODIUM ORTHOVANAD, the IC50 in assay [34] was found to be 25 µM.
